Source: patent US10189842B2 (Agency for Science, Technology and Research, priority 2013, dated 2019)

System: HEK293-STF3A cells
Assay: STF3A assay (luciferase reporter)
Type: cell-based, Human
Details: Homo sapiens, 24 h, 1 day of treatment
In short: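 HEK293 cells carrying the STF reporter and expressing Wnt3A, seeded 2×10^4 per well overnight, then treated 1 day with compound at final 50 μM to 1.5 nM. Luciferase activity read by luminescence after Steady-Glo reagent, 10 min at room temperature.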

| Structure (SMILES) | IC50 [nM] |
| --- | --- |
| Cc1cc2n(n1)CCCN2C(=O)CCC(=O)Nc1cnc(-c2cccnc2)c(C)n1 [Compound 125, N-(6-methyl-5-(pyridin-3-yl)pyrazin-2-yl)-4-(2-methyl-6,7-dihydropyrazolo[1,5-a]pyrimidin-4(5H)-yl)-4-oxobutanamide] | > 10000 |
| Cc1cccc(-c2cnc(NC(=O)CCC(=O)N3CCCn4nc(C)cc43)cn2)c1 [Compound 126, 4-(2-methyl-6,7-dihydropyrazolo[1,5-a]pyrimidin-4(5H)-yl)-4-oxo-N-(5-(m-tolyl)pyrazin-2-yl)butanamide] | < 100 |
| Cc1ccc(-c2cnc(NC(=O)CCC(=O)N3CCCn4nc(C)cc43)cn2)cn1 [Compound 127, 4-(2-methyl-6,7-dihydropyrazolo[1,5-a]pyrimidin-4(5H)-yl)-N-(5-(6-methylpyridin-3-yl)pyrazin-2-yl)-4-oxobutanamide] | < 1000 |
| Cc1cncc(-c2ccc(NC(=O)CCC(=O)N3CCCn4nc(C)cc43)nc2)n1 [Compound 128, 4-(2-methyl-6,7-dihydropyrazolo[1,5-a]pyrimidin-4(5H)-yl)-N-(5-(6-methylpyrazin-2-yl)pyridin-2-yl)-4-oxobutanamide] | < 100 |
| Cc1cc2n(n1)CCCN2C(=O)CCC(=O)Nc1ccc(-c2cnccn2)cc1 [Compound 129, 4-(2-methyl-6,7-dihydropyrazolo[1,5-a]pyrimidin-4(5H)-yl)-4-oxo-N-(4-(pyrazin-2-yl)phenyl)butanamide] | < 100 |
| Cc1cc2n(n1)CCCN2C(=O)CCC(=O)N(C)c1cc(-c2cccc(Cl)c2)no1 [Compound 130, N-(3-(3-chlorophenyl)isoxazol-5-yl)-N-methyl-4-(2-methyl-6,7-dihydropyrazolo[1,5-a]pyrimidin-4(5H)-yl)-4-oxobutanamide] | > 10000 |
| Cc1cc2n(n1)CCCN2CCCCNc1cc(-c2cccc(Cl)c2)no1 [Compound 131, 3-(3-chlorophenyl)-N-(4-(2-methyl-6,7-dihydropyrazolo[1,5-a]pyrimidin-4(5H)-yl)butyl)isoxazol-5-amine] | > 10000 |
| Cc1cc2n(n1)CCCN2C(=O)C(C)CC(=O)Nc1cc(-c2cccc(Cl)c2)no1 (stereo not shown) [Compound 132, N-(3-(3-chlorophenyl)isoxazol-5-yl)-3-methyl-4-(2-methyl-6,7-dihydropyrazolo[1,5-a]pyrimidin-4(5H)-yl)-4-oxobutanamide] | > 10000 |
| O=C(CCC(=O)N1CCCn2nccc21)Nc1cc(-c2cccc(Cl)c2)no1 [Compound 133, N-(3-(3-chlorophenyl)isoxazol-5-yl)-4-(6,7-dihydropyrazolo[1,5-a]pyrimidin-4(5H)-yl)-4-oxobutanamide] | > 10000 |
| O=C(CCC(=O)N1CCCn2nc(C(F)(F)F)cc21)Nc1cc(-c2cccc(Cl)c2)no1 [Compound 134, N-(3-(3-chlorophenyl)isoxazol-5-yl)-4-oxo-4-(2-(trifluoromethyl)-6,7-dihydropyrazolo[1,5-a]pyrimidin-4(5H)-yl)butanamide] | < 100 |
| COc1cc2n(n1)CCCN2C(=O)CCC(=O)Nc1cc(-c2cccc(Cl)c2)no1 [Compound 135, N-(3-(3-chlorophenyl)isoxazol-5-yl)-4-(2-methoxy-6,7-dihydropyrazolo[1,5-a]pyrimidin-4(5H)-yl)-4-oxobutanamide] | > 10000 |
| COC(=O)c1cc2n(n1)CCCN2C(=O)CCC(=O)Nc1cc(-c2cccc(Cl)c2)no1 [Compound 136, methyl 4-(4-(3-(3-chlorophenyl)isoxazol-5-ylamino)-4-oxobutanoyl)-4,5,6,7-tetrahydropyrazolo[1,5-a]pyrimidine-2-carboxylate] | > 10000 |
| CCc1cc2n(n1)CCCN2C(=O)CCC(=O)Nc1cc(-c2cccc(Cl)c2)no1 [Compound 137, N-(3-(3-chlorophenyl)isoxazol-5-yl)-4-(2-ethyl-6,7-dihydropyrazolo[1,5-a]pyrimidin-4(5H)-yl)-4-oxobutanamide] | < 100 |
| Cc1cc2n(n1)CCN2C(=O)CCC(=O)Nc1cc(-c2cccc(Cl)c2)no1 [Compound 138, N-(3-(3-chlorophenyl)isoxazol-5-yl)-4-(6-methyl-2,3-dihydro-1H-imidazo[1,2-b]pyrazol-1-yl)-4-oxobutanamide] | > 10000 |
| Cc1cc2n(n1)CC(C)CN2C(=O)CCC(=O)Nc1ccc(-c2ccccc2)nn1 (stereo not shown) [Compound 139, 4-(2,6-dimethyl-6,7-dihydropyrazolo[1,5-a]pyrimidin-4(5H)-yl)-4-oxo-N-(6-phenylpyridazin-3-yl)butanamide] | < 100 |
| Cc1cc2n(n1)CC(C)CN2C(=O)CCC(=O)Nc1ccc(-c2cccnc2)nc1 (stereo not shown) [Compound 140, N-(2,3′-bipyridin-5-yl)-4-(2,6-dimethyl-6,7-dihydropyrazolo[1,5-a]pyrimidin-4(5H)-yl)-4-oxobutanamide] | < 100 |
| Cc1cc2n(n1)CC(C)CN2C(=O)CCC(=O)Nc1ccc(-c2cccnc2)nn1 (stereo not shown) [Compound 141, 4-(2,6-dimethyl-6,7-dihydropyrazolo[1,5-a]pyrimidin-4(5H)-yl)-4-oxo-N-(6-(pyridin-3-yl)pyridazin-3-yl)butanamide] | < 100 |
| Cc1cncc(-c2ccc(NC(=O)CCC(=O)N3CC(C)Cn4nc(C)cc43)nc2)c1 (stereo not shown) [Compound 142, 4-(2,6-dimethyl-6,7-dihydropyrazolo[1,5-a]pyrimidin-4(5H)-yl)-N-(5′-methyl-[3,3′-bipyridin]-6-yl)-4-oxobutanamide] | < 100 |
| Cc1cncc(-c2ccc(NC(=O)CCC(=O)N3CC(C)Cn4nc(C)cc43)cn2)c1 (stereo not shown) [Compound 144, 4-(2,6-dimethyl-6,7-dihydropyrazolo[1,5-a]pyrimidin-4(5H)-yl)-N-(5′-methyl-[2,3′-bipyridin]-5-yl)-4-oxobutanamide] | < 100 |
| Cc1cc2n(n1)CCCN2C(=O)CC(C)C(=O)Nc1ccc(-c2cccnc2)nc1 (stereo not shown) [Compound 145, N-([2,3′-bipyridin]-5-yl)-2-methyl-4-(2-methyl-6,7-dihydropyrazolo[1,5-a]pyrimidin-4(5H)-yl)-4-oxobutanamide] | < 100 |
| Cc1cc2n(n1)CCCN2C(=O)CC(C)C(=O)Nc1ccc(-c2ccccc2)nn1 (stereo not shown) [Compound 146, 2-methyl-4-(2-methyl-6,7-dihydropyrazolo[1,5-a]pyrimidin-4(5H)-yl)-4-oxo-N-(6-phenylpyridazin-3-yl)butanamide] | < 100 |
| Cc1cc2n(n1)CCCN2C(=O)CC(C)C(=O)Nc1ccc(-c2cccnc2)cn1 (stereo not shown) [Compound 147, N-([3,3′-bipyridin]-6-yl)-2-methyl-4-(2-methyl-6,7-dihydropyrazolo[1,5-a]pyrimidin-4(5H)-yl)-4-oxobutanamide] | < 100 |
| Cc1ccnc(-c2ccc(NC(=O)CCC(=O)N3CCCn4nc(C)cc43)nc2)c1 [Compound 148, N-(4-methyl-2,3′-bipyridin-6′-yl)-4-(2-methyl-6,7-dihydropyrazolo[1,5-a]pyrimidin-4(5H)-yl)-4-oxobutanamide] | < 100 |
| Cc1cnc(-c2ccc(NC(=O)CCC(=O)N3CCCn4nc(C)cc43)nc2)cn1 [Compound 149, 4-(2-methyl-6,7-dihydropyrazolo[1,5-a]pyrimidin-4(5H)-yl)-N-(5-(5-methylpyrazin-2-yl)pyridin-2-yl)-4-oxobutanamide] | < 100 |
| Cc1cncc(-c2ccc(NC(=O)C(C)CC(=O)N3CCCn4nc(C)cc43)cn2)c1 (stereo not shown) [Compound 150, 2-methyl-4-(2-methyl-6,7-dihydropyrazolo[1,5-a]pyrimidin-4(5H)-yl)-N-(5′-methyl-[2,3′-bipyridin]-5-yl)-4-oxobutanamide] | < 100 |
